Data on one compound can be found in article PMC7824383, “Organic Solution Advanced Spray-Dried Microparticulate/Nanoparticulate Dry Powders of Lactomorphin for Respiratory Delivery: Physicochemical Characterization, In Vitro Aerosol Dispersion, and Cellular Studies” (Pharmaceutics, 2020).

The nature of this data set: Residual water content by Karl Fischer titration. The note with it: Karl Fischer coulometric titration, 1–2 mg in anhydrous methanol; mean ± SD, n = 3. It is filed as physicochemical. The protocol:
Using conditions similar to previously reported, the residual water content of all powders was quantified by Karl Fischer titration (KFT) […] using a TitroLine® 7500 trace titrator (SI Analytics, Mainz, Germany). Around 1–2 mg of sample was dissolved in 0.5 mL AQUA STAR anhydrous methanol. The sample solution was injected into a reaction cell filled with Hydranal®Coulomat AD reagent; then, a simple calculation obtained the sample’s water content. All experiments were done in triplicate (n = 3).

In the case of `OC[C@H]1O[C@H](O[C@H]2O[C@H](CO)[C@@H](O)[C@H](O)[C@H]2O)[C@H](O)[C@@H](O)[C@@H]1O` [Raw Trehalose, D (+)-Trehalose dihydrate], the “Water % (w/w)” value is on record as 8.11 ± 1.96 % (w/w).
